{"source": "ChEMBL document CHEMBL5518181", "about": "“Studies of antibacterial activity (in vitro and in vivo) and mode of action for des-acyl tridecaptins (DATs)” (Eur J Med Chem, 2024)", "key": {"Proteus mirabilis": {"tested_on": "Proteus mirabilis", "assay": "Antibacterial activity against Proteus mirabilis ATCC 7002 assessed as inhibition of bacterial growth incubated for 18 hrs", "assay_type": "functional", "details": "read-out: MIC100"}, "Cell membrane [1]": {"tested_on": "Cell membrane", "assay": "Induction of membrane permeabilization in Escherichia coli ATCC 25922 at 4 to 10 ug/ml measured after 30 mins by Sytox Green labelling based microscopic analysis", "assay_type": "cell membranes", "details": "dose 4-10 µg/ml"}, "[2]": {"assay": "Drug localization in membrane fraction of Escherichia coli ATCC 25922 at 10 uM incubated for 10 mins by LC-MS/MS analysis", "assay_type": "ADME, cell membranes"}, "Pseudomonas aeruginosa": {"tested_on": "Pseudomonas aeruginosa", "assay": "Antibacterial activity against efflux-deficient Pseudomonas aeruginosa PAO750 assessed as inhibition of bacterial growth incubated for 18 hrs", "assay_type": "functional", "details": "read-out: MIC100"}, "Escherichia coli [3]": {"tested_on": "Escherichia coli", "assay": "Antibacterial activity against Escherichia coli ATCC BAA-2469 expressing NDM-1 assessed as inhibition of bacterial growth incubated for 18 hrs", "assay_type": "functional", "details": "read-out: MIC100"}, "[4]": {"assay": "Drug uptake in Proteus mirabilis ATCC 7002 whole cells at 10 uM incubated for 10 mins by LC-MS/MS analysis", "assay_type": "ADME"}, "[5]": {"assay": "Aqueous solubility of compound at pH 4.6", "assay_type": "physicochemical"}, "Escherichia coli [6]": {"tested_on": "Escherichia coli", "assay": "Antibacterial activity against Escherichia coli Swiss 7 harboring mcr-1 gene assessed as inhibition of bacterial growth incubated for 18 hrs", "assay_type": "functional", "details": "read-out: MIC100"}, "[7]": {"assay": "Drug uptake in Pseudomonas aeruginosa PAO1 whole cells assessed as log10 increase in drug accumulation at 10 uM incubated for 10 mins by LC-MS/MS analysis relative to H-(D-Val)-(D-Dab)-Gly-(D-Ser)-(D-Trp)-Ser-Dab-(D-Dab)-Phe-Glu-Val-(D-allo-Ile)-Ala-OH", "assay_type": "ADME"}, "[8]": {"assay": "Aqueous solubility of compound at pH 7.4", "assay_type": "physicochemical"}, "Escherichia coli [9]": {"tested_on": "Escherichia coli", "assay": "Antibacterial activity against Escherichia coli Swiss 9 harboring mcr-1 gene assessed as inhibition of bacterial growth incubated for 18 hrs", "assay_type": "functional", "details": "read-out: MIC100"}, "[10]": {"assay": "Drug uptake in Escherichia coli ATCC 25922 assessed as fold increase in cellular drug concentration at 10 uM incubated for 10 mins by LC-MS/MS analysis", "assay_type": "ADME"}, "Escherichia coli [11]": {"tested_on": "Escherichia coli", "assay": "Antibacterial activity against colistin resistant Escherichia coli NCTC 13846 harboring mcr-1 gene assessed as inhibition of bacterial growth incubated for 18 hrs", "assay_type": "functional", "details": "read-out: MIC100"}, "Staphylococcus aureus": {"tested_on": "Staphylococcus aureus", "assay": "Antibacterial activity against wild type Staphylococcus aureus USA300 assessed as inhibition of bacterial growth incubated for 18 hrs", "assay_type": "functional", "details": "read-out: MIC100"}, "Klebsiella pneumoniae": {"tested_on": "Klebsiella pneumoniae", "assay": "Antibacterial activity against wild-type Klebsiella pneumoniae ATCC 13883 assessed as inhibition of bacterial growth incubated for 18 hrs", "assay_type": "functional", "details": "read-out: MIC100"}, "[12]": {"assay": "Drug uptake in Acinetobacter baumannii ATCC 19606 whole cells assessed as log10 increase in drug accumulation at 10 uM incubated for 10 mins by LC-MS/MS analysis relative to H-(D-Val)-(D-Dab)-Gly-(D-Ser)-(D-Trp)-Ser-Dab-(D-Dab)-Phe-Glu-Val-(D-allo-Ile)-Ala-OH", "assay_type": "ADME"}, "[13]": {"assay": "Lipophilicity, logD of compound at pH 7.4", "assay_type": "physicochemical", "details": "buffer"}, "Escherichia coli [14]": {"tested_on": "Escherichia coli", "assay": "Antibacterial activity against wild-type Escherichia coli ATCC 25922 assessed as inhibition of bacterial growth incubated for 18 hrs", "assay_type": "functional", "details": "read-out: MIC100"}, "Morganella morganii": {"tested_on": "Morganella morganii", "assay": "Antibacterial activity against Morganella morganii ATCC 25830 assessed as inhibition of bacterial growth incubated for 18 hrs", "assay_type": "functional", "details": "read-out: MIC100"}, "Cell membrane [15]": {"tested_on": "Cell membrane", "assay": "Induction of membrane permeabilization in Klebsiella pneumoniae ATCC 13883 at 4 to 10 ug/ml measured after 30 mins by Sytox Green labelling based microscopic analysis", "assay_type": "cell membranes", "details": "dose 4-10 µg/ml"}, "[16]": {"assay": "Toxicity in naive mouse assessed as drug tolerance at 20 mg/kg, sc administered as single dose every 4 hrs for 24 hrs", "assay_type": "organism-based", "details": "in vivo"}}, "note": "Calls of active or inactive are those of the source. The rule behind the calls is not given here.", "data": [{"compound": "CCCCCCCC(=O)N[C@@H](C(=O)N[C@H](CCN)C(=O)NCC(=O)N[C@H](CO)C(=O)N[C@H](Cc1c[nH]c2ccccc12)C(=O)N[C@@H](CO)C(=O)N[C@@H](CCN)C(=O)N[C@H](CCN)C(=O)N[C@@H](Cc1ccccc1)C(=O)N[C@@H](CCC(=O)O)C(=O)N[C@H](C(=O)N[C@@H](C(=O)N[C@@H](C)C(=O)O)[C@@H](C)CC)C(C)C)C(C)C", "values": [{"measurement": "MIC", "setting": "Proteus mirabilis", "value": 32, "unit": "µg/mL"}, {"measurement": "Activity", "setting": "Cell membrane [1]", "value": "Active"}, {"measurement": "Drug uptake", "setting": "[2]", "value": "Active"}, {"measurement": "MIC", "setting": "Pseudomonas aeruginosa", "value": "> 32", "unit": "µg/mL"}, {"measurement": "MIC", "setting": "Escherichia coli [3]", "value": 1, "unit": "µg/mL"}, {"measurement": "Drug uptake", "setting": "[4]", "value": "Active"}, {"measurement": "solubility", "setting": "[5]", "value": 88, "unit": "mg/mL"}, {"measurement": "MIC", "setting": "Escherichia coli [6]", "value": 1, "unit": "µg/mL"}, {"measurement": "log(activity)", "setting": "[7]", "value": 2}, {"measurement": "solubility", "setting": "[8]", "value": 30, "unit": "mg/mL"}, {"measurement": "MIC", "setting": "Escherichia coli [9]", "value": 0.5, "unit": "µg/mL"}, {"measurement": "fold change (FC)", "setting": "[10]", "value": 30}, {"measurement": "MIC", "setting": "Escherichia coli [11]", "value": 1, "unit": "µg/mL"}, {"measurement": "MIC", "setting": "Staphylococcus aureus", "value": 32, "unit": "µg/mL"}, {"measurement": "MIC", "setting": "Klebsiella pneumoniae", "value": 4, "unit": "µg/mL"}, {"measurement": "log(activity)", "setting": "[12]", "value": 2}, {"measurement": "logD", "setting": "[13]", "value": 2.24}, {"measurement": "MIC", "setting": "Escherichia coli [14]", "value": 2, "unit": "µg/mL"}, {"measurement": "MIC", "setting": "Morganella morganii", "value": "> 32", "unit": "µg/mL"}, {"measurement": "Activity", "setting": "Cell membrane [15]", "value": "Active"}]}, {"compound": "COLISTIN", "values": [{"measurement": "Activity", "setting": "[16]", "value": "Non-Toxic"}]}]}
